Measurements from ChEMBL document CHEMBL1152354, “Design, synthesis and identification of novel colchicine-derived immunosuppressant” (Bioorg Med Chem Lett, 2009).
Calls of active or inactive are those of the source. No cut-off for these calls is given here.

Legend:
Splenocyte [1] = assay: Immunosuppressive activity in splenocytes assessed as inhibition of mixed lymphocyte reaction; assay type: functional, cell-based
Splenocyte [2] = assay: Immunosuppressive activity in mouse splenocytes assessed as inhibition of allogenic mixed lymphocyte reaction; assay type: functional, cell-based
Splenocyte [3] = assay: Ratio of IC50 of drug to IC50 of cyclosporin A for immunosuppressive activity in mouse splenocytes assessed as inhibition of allogenic mixed lymphocyte reaction; assay type: functional
[4] = Cytotoxicity against rat H42E cells assessed as intracellular ATP level; assay type: cell-based; settings: read-out: TC50 (the source's name)
[5] = Cytotoxicity against rat H42E cells assessed as alteration in mitochondrial function by MTT assay; assay type: cell-based; settings: read-out: TC50 (the source's name)
[6] = Antiproliferative activity against rat H42E cells assessed as cell number; assay type: cell-based
[7] = Cytotoxicity against rat H42E cells assessed as release of alpha-glutathione S transferase; assay type: cell-based; settings: read-out: TC50 (the source's name)
[8] = Immunosuppressive activity in concanavalin A-activated T cell assessed as inhibition of lymphoproliferation after 3 days by beta-scintillation counting; assay type: functional, cell-based
[9] = Immunosuppressive activity in LPS-activated B lymphocyte assessed as inhibition of lymphoproliferation after 3 days by beta-scintillation counting; assay type: functional
RAW264.7 [10] = assay: Cytotoxicity against mouse RAW264.7 cells at 0.01 to 10 uM; assay type: cell-based; settings: raw264.7, 10 µM
RAW264.7 [11] = assay: Immunosuppressive activity in mouse RAW264.7 cells assessed as inhibition of LPS-induced NO production at 0.01 to 10 uM; assay type: functional, cell-based
RAW264.7 [12] = assay: Immunosuppressive activity in mouse RAW264.7 cells assessed as inhibition of LPS-induced iNOS expression at 0.01 to 10 uM; assay type: functional, cell-based
RAW264.7 [13] = assay: Immunosuppressive activity in mouse RAW264.7 cells assessed as inhibition of LPS-induced TNFalpha expression level in at 0.01 to 10 uM; assay type: functional, cell-based
RAW264.7 [14] = assay: Immunosuppressive activity in mouse RAW264.7 cells assessed as inhibition of LPS-induced NO production; assay type: functional, cell-based
RAW264.7 [15] = assay: Immunosuppressive activity in mouse RAW264.7 cells assessed as inhibition of LPS-induced iNOS expression; assay type: functional, cell-based
Mus musculus = assay: Immunosuppressive activity in BALB/c mouse skin allografted C57BL/6 mouse assessed as survival of allograft skin at 1 mg/kg, ip administered daily; assay type: functional; settings: route intraperitoneal
[16] = Mus musculus, Splenocyte, read-out: IC50

Row | SMILES | IC50 (Splenocyte [1]; [16]) [µM] | IC50 (Splenocyte [2]) [µM] | other results
1 | COc1cc2c(c(OC)c1OC)-c1ccc(SC)c(=O)cc1[C@@H](NC(=O)c1ccc(Br)c(CO[N+](=O)[O-])c1)CC2 | 0.089 |  | 
2 | COc1cc2c(c(OC)c1OC)-c1ccc(SC)c(=O)cc1[C@@H](NC(=O)c1cccc(CO[N+](=O)[O-])c1OC)CC2 | 0.7 |  | 
3 | COc1cc2c(c(OC)c1OC)-c1ccc(OC)c(=O)cc1[C@@H](NC(=O)c1ccc(CO[N+](=O)[O-])cc1)CC2 |  | 0.07 | Ratio IC50 (Splenocyte [3]): 5
4 | COc1cc2c(c(OC)c1OC)-c1ccc(SC)c(=O)cc1[C@@H](NC(=O)c1ccc(Cl)c(CO[N+](=O)[O-])c1)CC2 | 0.05 |  | CC50 [4]: 300 µM; CC50 [5]: 300 µM; CC50 [6]: 300 µM; CC50 [7]: 300 µM
5 | COc1cc2c(c(OC)c1OC)-c1ccc(OC)c(=O)cc1[C@@H](NC(=O)c1cccc(CO[N+](=O)[O-])c1)CC2 |  | 0.25 | Ratio IC50 (Splenocyte [3]): 25
6 | COc1cc2c(c(OC)c1OC)-c1ccc(SC)c(=O)cc1[C@@H](NC(=O)c1cccc(CO[N+](=O)[O-])c1[N+](=O)[O-])CC2 | 0.009 |  | IC50 [8]: 0.007 µM
7 | COc1cc2c(c(OC)c1OC)-c1ccc(N(C)C)c(=O)cc1[C@@H](NC(=O)c1ccc(CO[N+](=O)[O-])cc1)CC2 |  | 2.5 | 
8 | COc1ccc(CO[N+](=O)[O-])cc1C(=O)N[C@H]1CCc2cc(OC)c(OC)c(OC)c2-c2ccc(SC)c(=O)cc21 | 0.078 |  | 
9 | COc1cc2c(c(OC)c1OC)-c1ccc(SC)c(=O)cc1[C@@H](NC(=O)c1cc(CO[N+](=O)[O-])ccc1-c1ccccc1)CC2 |  |  | IC50 (Splenocyte [1]; splenocyte): Not Active
10 | COc1cc2c(c(OC)c1OC)-c1ccc(SC)c(=O)cc1[C@@H](NC(=O)c1ccc(-c3ccccc3)c(CO[N+](=O)[O-])c1)CC2 | 0.054 |  | 
11 | COc1cc2c(c(OC)c1OC)-c1ccc(SC)c(=O)cc1[C@@H](NC(=O)c1ccc(I)c(CO[N+](=O)[O-])c1)CC2 | 0.068 |  | 
12 | COc1cc2c(c(OC)c1OC)-c1ccc(SC)c(=O)cc1[C@@H](NC(=O)c1cccc(CO[N+](=O)[O-])c1Br)CC2 | 0.061 |  | 
13 | COc1cc2c(c(OC)c1OC)-c1ccc(OC)c(=O)cc1[C@@H](NC(=O)c1ccc(CCl)cc1)CC2 |  | 0.32 | Ratio IC50 (Splenocyte [3]): 7
14 | COc1cc2c(c(OC)c1OC)-c1ccc(SC)c(=O)cc1[C@@H](NC(=O)c1cc(CO[N+](=O)[O-])ccc1Br)CC2 | 0.089 |  | 
15 | COc1cc2c(c(OC)c1OC)-c1ccc(SC)c(=O)cc1[C@@H](NC(=O)c1ccc(CO[N+](=O)[O-])cc1)CC2 |  | 0.02 | IC50 [9]: 0.349 µM; IC50 [8]: 0.392 µM
16 | COc1cc2c(c(OC)c1OC)-c1ccc(OC)c(=O)cc1[C@@H](NC(=O)CCCO[N+](=O)[O-])CC2 |  | 0.01 | Ratio IC50 (Splenocyte [3]): 470
17 | COc1cc2c(c(OC)c1OC)-c1ccc(SC)c(=O)cc1[C@@H](NC(=O)c1cccc(CO[N+](=O)[O-])c1)CC2 | 0.068 | 0.07 | IC50 [9]: 0.001 µM; IC50 [8]: 0.001 µM; Activity (RAW264.7 [10]): Non-toxic; inhibition (RAW264.7 [11]): inactive; inhibition (RAW264.7 [12]): inactive; inhibition (RAW264.7 [13]): Active; Activity (RAW264.7 [14]): Dose-dependent effect; Activity (RAW264.7 [15]): Dose-dependent effect
18 | COc1cc2c(c(OC)c1OC)-c1ccc(N(C)C)c(=O)cc1[C@@H](NC(=O)c1cccc(CO[N+](=O)[O-])c1)CC2 |  | 10 | 
19 | COc1cc2c(c(OC)c1OC)-c1ccc(SC)c(=O)cc1[C@@H](NC(=O)c1cc(CO[N+](=O)[O-])ccc1C#N)CC2 | 0.29 |  | 
20 | COc1cc2c(c(OC)c1OC)-c1ccc(SC)c(=O)cc1[C@@H](NC(=O)c1cccc(CO[N+](=O)[O-])c1-c1ccccc1)CC2 | 0.434 |  | 
21 | COc1cc2c(c(OC)c1OC)-c1ccc(OC)c(=O)cc1[C@@H](N(C)C(=O)c1cccc(CO[N+](=O)[O-])c1)CC2 |  | > 100 | 

Row | SMILES | IC50 (Splenocyte [1]; [16]) [µM] | IC50 (Splenocyte [2]) [µM] | other results
22 | COc1cc2c(c(OC)c1OC)-c1ccc(SC)c(=O)cc1[C@@H](NC(=O)c1cccc(CO[N+](=O)[O-])c1F)CC2 | 0.065 |  | 
23 | COc1cc2c(c(OC)c1OC)-c1ccc(SC)c(=O)cc1[C@@H](NC(=O)c1cc(CO[N+](=O)[O-])ccc1F)CC2 | 0.004 |  | 
24 | COc1cc2c(c(OC)c1OC)-c1ccc(N(C)C)c(=O)cc1[C@@H](NC(=O)CCCO[N+](=O)[O-])CC2 |  | 6.6 | 
25 | COc1ccc(C(=O)N[C@H]2CCc3cc(OC)c(OC)c(OC)c3-c3ccc(SC)c(=O)cc32)cc1CO[N+](=O)[O-] | 0.015 |  | 
26 | COc1cc2c(c(OC)c1OC)-c1ccc(OC)c(=O)cc1[C@@H](N(C)C(=O)c1ccc(CO[N+](=O)[O-])cc1)CC2 |  | > 100 | 
27 | C/C=C/C[C@@H](C)[C@@H](O)[C@H]1C(=O)N[C@@H](CC)C(=O)N(C)CC(=O)N(C)[C@@H](CC(C)C)C(=O)N[C@@H](C(C)C)C(=O)N(C)[C@@H](CC(C)C)C(=O)N[C@@H](C)C(=O)N[C@H](C)C(=O)N(C)[C@@H](CC(C)C)C(=O)N(C)[C@@H](CC(C)C)C(=O)N(C)[C@@H](C(C)C)C(=O)N1C [CYCLOSPORINE] |  |  | Survival (Mus musculus): 11.8 days
28 | COc1cc2c(c(OC)c1OC)-c1ccc(OC)c(=O)cc1[C@@H](NC(=O)CCCCl)CC2 |  | 4.7 | 
29 | COc1cc2c(c(OC)c1OC)-c1ccc(SC)c(=O)cc1[C@@H](NC(=O)c1cccc(CO[N+](=O)[O-])c1C#N)CC2 | 0.058 |  | 
30 | COc1cc2c(c(OC)c1OC)-c1ccc(SC)c(=O)cc1[C@@H](NC(=O)c1cc(CO[N+](=O)[O-])ccc1[N+](=O)[O-])CC2 | 0.073 |  | 
31 | COc1cc2c(c(OC)c1OC)-c1ccc(SC)c(=O)cc1[C@@H](NC(=O)CCCO[N+](=O)[O-])CC2 |  | 0.21 | IC50 [9]: 0.001 µM; IC50 [8]: 0.582 µM; Activity (RAW264.7 [10]): Non-toxic
32 | COc1cc2c(c(OC)c1OC)-c1ccc(SC)c(=O)cc1[C@@H](NC(=O)c1cc(CO[N+](=O)[O-])ccc1Cl)CC2 | 0.004 |  | IC50 [8]: 0.392 µM
33 | COc1cc2c(c(OC)c1OC)-c1ccc(OC)c(=O)cc1[C@@H](NC(=O)c1cccc(CCl)c1)CC2 |  | 6.3 | 
34 | COc1cc2c(c(OC)c1OC)-c1ccc(OC)c(=O)cc1[C@@H](NC(C)=O)CC2 [COLCHICINE] |  | 2.3 | IC50 [9]: 0.0073 µM; IC50 [8]: 0.548 µM
35 | COc1cc2c(c(OC)c1OC)-c1ccc(SC)c(=O)cc1[C@@H](NC(=O)c1ccc(C#N)c(CO[N+](=O)[O-])c1)CC2 | 0.049 |  | 
36 | COc1cc2c(c(OC)c1OC)-c1ccc(SC)c(=O)cc1[C@@H](NC(=O)c1cccc(CO[N+](=O)[O-])c1Cl)CC2 | 0.008 |  | IC50 [8]: 0.003 µM; Survival (Mus musculus): 12.3 days
37 | COc1cc2c(c(OC)c1OC)-c1ccc(OC)c(=O)cc1[C@@H](N(C)C(=O)CCCO[N+](=O)[O-])CC2 |  | 3.5 | 
38 | COc1cc2c(c(OC)c1OC)-c1ccc(SC)c(=O)cc1[C@@H](NC(=O)c1ccc([N+](=O)[O-])c(CO[N+](=O)[O-])c1)CC2 | 0.055 |  | 
39 | COc1cc2c(c(OC)c1OC)-c1ccc(SC)c(=O)cc1[C@@H](NC(=O)c1cccc(CO[N+](=O)[O-])c1I)CC2 | 0.085 |  | 
40 | COc1cc2c(c(OC)c1OC)-c1ccc(SC)c(=O)cc1[C@@H](NC(=O)c1ccc(F)c(CO[N+](=O)[O-])c1)CC2 | 0.031 |  | 
41 | COc1cc2c(c(OC)c1OC)-c1ccc(SC)c(=O)cc1[C@@H](NC(=O)c1cc(CO[N+](=O)[O-])ccc1I)CC2 | 0.103 |  | 
